Experimental data taken from patent US7358214B2, “Pyrazolyl carboxanilides for controlling unwanted microorganisms” (Bayer CropScience AG, priority 2003, dated 2008).

Experiments:
[1] = logP determination by HPLC on reversed-phase column (C 18), pH 2.3; type: physicochemical; conditions: reversed-phase HPLC column (C 18), HPLC reversed-phase C 18, 43° C.
Protocol: The logP values given in the preparation examples and the tables above are determined in accordance with EEC Directive 79/831 Annex V.A8 by HPLC (High Performance Liquid Chromatography) on a reversed-phase column (C 18). Temperature: 43° C. The determination is carried out in the acidic range at pH 2.3 using the mobile phases 0.1% aqueous phosphoric acid and acetonitrile; linear gradient from 10% acetonitrile to 90% acetonitrile. Calibration is carried out using unbranched alkan-2-ones (having 3 to 16 carbon atoms) with known logP values (determination of the logP values by retention times using linear interpolation between two successive alkanones).

[2] = tested on: Puccinia recondita; assay: Puccinia test (wheat)/protective; type: in vivo; conditions: application rate 500 g/ha; protective; evaluation 10 days after inoculation
Protocol: • Solvent: 25 parts by weight of N,N-dimethylacetamide • Emulsifier: 0.6 part by weight of alkylaryl polyglycol ether To produce a suitable preparation of active compound, 1 part by weight of active compound is mixed with the stated amounts of solvent and emulsifier, and the concentrate is diluted with water to the desired concentration. To test for protective activity, young plants are sprayed with the preparation of active compound at the stated application rate. After the spray coating has dried on, the plants are sprayed with a conidia suspension of Puccinia recondita. The plants remain in an incubation cabin at 20° C. and 100% relative atmospheric humidity for 48 hours. The plants are then placed in a greenhouse at a temperature of about 20° C. and a relative atmospheric humidity of 80% to promote the development of rust pustules. Evaluation is carried out 10 days after the inoculation. 0% means an efficacy which corresponds to that of the control, whereas an efficacy of 100% means that no infection is observed.

[3] = tested on: Alternaria mali; assay: In vitro test for the ED50 determination in microorganisms; type: cell-based; conditions: 50% inhibition of fungal growth, 22° C., 3-5 days, photometric at 620 nm
Protocol: A methanolic solution of the active compound to be tested, mixed with emulsifier PS16, is pipetted into the wells of a microtiter plate. After the solvent has evaporated, 200 μl of potato dextrose medium are added to each well. Beforehand, a suitable concentration of spores or mycelium of the fungus to be tested was added to the medium. The resulting concentrations of active compound are 0.1, 1, 10 and 100 ppm. The resulting concentration of the emulsifier is 300 ppm. The plates are then incubated on a shaker at a temperature of 22° C. for 3-5 days, until sufficient growth can be observed in the untreated control. Evaluation is carried out photometrically at a wavelength of 620 nm. The dose of active compound which causes 50% inhibition of fungal growth compared to the untreated control (ED50) is calculated from data measured at different concentrations.

[4] = tested on: Botrytis cinerea; assay: Botrytis test (bean)/protective; type: in vivo; conditions: application rate 500 g/ha; protective; evaluation two days after inoculation
Protocol: [table] To produce a suitable preparation of active compound, 1 part by weight of active compound is mixed with the stated amounts of solvents and emulsifier, and the concentrate is diluted with water to the desired concentration. To test for protective activity, young plants are sprayed with the preparation of active compound at the stated application rate. After the spray coating has dried on, 2 small pieces of agar colonized by Botrytis cinerea are placed onto each leaf. The inoculated plants are placed in a dark chamber at about 20° C. and 100% relative atmospheric humidity. Two days after the inoculation, the size of the infected areas on the leaves is evaluated. 0% means an efficacy which corresponds to that of the control, whereas an efficacy of 100% means that no infection is observed.

[5] = tested on: Sphaerotheca fuliginea; assay: Spaerotheca test (cucumber)/protective; type: in vivo; conditions: application rate 100 g/ha; protective; evaluation 7 days after inoculation
Protocol: (§1) [table] To produce a suitable preparation of active compound, 1 part by weight of active compound is mixed with the stated amounts of solvents and emulsifier, and the concentrate is diluted with water to the desired concentration. To test for protective activity, young plants are sprayed with the preparation of active compound at the stated application rate. After the spray coating has dried on, the plants are inoculated with an aqueous spore suspension of Sphaerotheca fuliginea. The plants are then placed in a greenhouse at about 23° C. and a relative atmospheric humidity of about 70%. Evaluation is carried out 7 days after the inoculation. 0% means an efficacy which corresponds to that of the control, whereas an efficacy of 100% means that no infection is observed.

[6] = tested on: Venturia inaequalis; assay: Venturia test (apple)/protective; type: in vivo; conditions: application rate 100 g/ha; protective; evaluation 10 days after inoculation
Protocol: as §1, with “conidia” for “spore”, “the apple scab pathogen Venturia inaequalis and then remain in an incubation cabin at about 20° C. and 100% relative atmospheric humidity for 1 day.” for “Sphaerotheca fuliginea.”, “21°” for “23°”, “90%.” for “70%.”, “10” for “7”

CC(C)CC(C)c1ccccc1NC(=O)c1c(C(F)(F)F)nn(C)c1F (stereo not shown) [Example 2]
chromatographic logP [1]: 3.88

CC(C)CC(C)c1ccccc1NC(=O)c1c(C(F)(F)F)nn(C)c1F (stereo not shown) [drawing 31]
Efficacy in % [2]: 100%

CCC(CC(C)C)c1ccccc1NC(=O)c1c(C(F)(F)F)nn(C)c1F (stereo not shown) [Example 4]
chromatographic logP [1]: 4.27

CCC(C)(C)CC(C)c1ccccc1NC(=O)c1c(C(F)(F)F)nn(C)c1F (stereo not shown) [drawing 43]
ED50 value in ppm [3]: <0.1 ppm

CC(C)CC(C)c1ccccc1NC(=O)c1c(C(F)(F)F)nn(C)c1F (stereo not shown) [drawing 39]
Efficacy in % [4]: 100%

CCC(C)(C)CC(C)c1ccccc1NC(=O)c1c(C(F)(F)F)nn(C)c1F (stereo not shown) [drawing 40]
Efficacy in % [4]: 95%

CC(CC(C)(C)C)c1ccccc1NC(=O)c1c(C(F)(F)F)nn(C)c1F (stereo not shown) [drawing 32]
Efficacy in % [5]: 100%

CC(CC(C)(C)C)c1ccccc1NC(=O)c1c(C(F)(F)F)nn(C)c1F (stereo not shown) [drawing 38]
Efficacy in % [4]: 100%

CC(C)CC(C)c1ccccc1NC(=O)c1c(C(F)(F)F)nn(C)c1F (stereo not shown) [drawing 33]
Efficacy in % [5]: 100%

CC(C)CC(C)c1ccccc1NC(=O)c1c(C(F)(F)F)nn(C)c1F (stereo not shown) [drawing 36]
Efficacy in % [6]: 100%

CC(CC(C)(C)C)c1ccccc1NC(=O)c1c(C(F)(F)F)nn(C)c1F (stereo not shown) [drawing 35]
Efficacy in % [6]: 100%

CC(C)CC(C)c1ccccc1NC(=O)c1c(C(F)(F)F)nn(C)c1F (stereo not shown) [drawing 42]
ED50 value in ppm [3]: 0.28 ppm

CC(C)CC(C)c1cc(F)ccc1NC(=O)c1c(C(F)(F)F)nn(C)c1F (stereo not shown) [Example 5]
chromatographic logP [1]: 3.92

CCC(C)(C)CC(C)c1ccccc1NC(=O)c1c(C(F)(F)F)nn(C)c1F (stereo not shown) [drawing 34]
Efficacy in % [5]: 98%

CC(CC(C)(C)C)c1ccccc1NC(=O)c1c(C(F)(F)F)nn(C)c1F (stereo not shown) [drawing 41]
ED50 value in ppm [3]: <0.1 ppm

CC(CC(C)(C)C)c1ccccc1NC(=O)c1c(C(F)(F)F)nn(C)c1F (stereo not shown) [drawing 30]
Efficacy in % [2]: 100%

CCC(C)(C)CC(C)c1ccccc1NC(=O)c1c(C(F)(F)F)nn(C)c1F (stereo not shown) [Example 3]
chromatographic logP [1]: 4.45

CCC(C)(C)CC(C)c1ccccc1NC(=O)c1c(C(F)(F)F)nn(C)c1F (stereo not shown) [drawing 37]
Efficacy in % [6]: 99%

CC(CC(C)(C)C)c1ccccc1NC(=O)c1c(C(F)(F)F)nn(C)c1F (stereo not shown) [Example 1, [5-fluoro-1-methyl-3-(trifluoromethyl)pyrazol-4-yl]-N-[2-(1,3,3-trimethylbutyl)phenyl]carbox-amide]
chromatographic logP [1]: 4.14
